Results from patent US6420559B1, “1-(4-arylpiperazin-1-yl)-ω-[N-(α,ω-dicarboximido)]-alkanes useful as uro-selective α1-adrenoceptor blockers” (Ranbaxy Laboratories Limited, priority 1997, dated 2002).
Counter-ions that a name gives are not always drawn. One block for each molecule: values may come before it.

How the values were obtained:
[1] = test system: anaesthetized normotensive rats; experiment: In vivo blood pressure, anaesthetized normotensive rats, intravenous route; set-up: species or system rat; conditions: 0.3 mg/kg intravenous, 3 hours observation
Experimental: (§1) Antihypertensive effect of selected compounds according to the invention were studied for their ability to lower blood pressure in anaesthetized and conscious normotensive and spontaneously hypertensive rats via intravenous, oral and intraduodenal routes.
Male wistar rats were anaesthetized with urethane (2.5 g/kg). Femoral vein and carotid artery were cannulated. Blood pressure and heart rate were recorded using Statham pressure transducer. Data was recorded on Grass polygraph as well as using online data acquisition system (Buxco AT). Intravenously administered compounds of the invention were initially tested at 0.3 mg/kg over a period of 3 hours for their effect on blood pressure and the results are shown in Table 1. For a select few of the compounds, the blood pressure lowering effect upon intravenous administration was also studied at dosages of 0.03, 0.1, 0.3, and 1 mg/kg.

[2] = molecular target: Muscarinic cholinergic receptor (Rattus norvegicus, UniProt P08483); experiment: In vitro receptor selectivity, rat trachea; format: cell-based
Experimental: (§2) Selectivity of action of the present compounds was tested against a range of different receptors, e.g., β1- and α2-adrenergic, muscarinic cholinergic, serotoninergic (5-HT2A), histaminergic (H1), angiotensin II, endothelin (ETA and B,), as well as calcium and potassium channels. Rat aorta was used to study the effect of the compounds on 5-HT2A, ETA, calcium and potassium channels. Angiotensin II receptor antagonistic activity was studied in rabbit aorta. Muscarinic cholinergic receptor and ETB receptor antagonistic activity was studied in rat trachea, while guinea pig trachea was used to study H1 receptor antagonistic activity. Electrically stimulated rat vas deferens was used to investigate the effect of α2-adrenoceptors, while β1-adrenoceptor antagonistic activity was studied using electrically stimulated rat ventricular strips. Results of this selectivity study is shown in (Table 2).

[3] = test system: anaesthetized normotensive rats; experiment: Mean arterial pressure in anaesthetized normotensive rats, intraduodenal route; format: in vivo, rat
Experimental: as §1
Male wistar rats were fasted for 18 hours. Rats were anaesthetized with urethane. Femoral vein and carotid artery were cannulated. A catheter was placed in the duodenum following lapratomy. The compounds of the present invention (at dosages of 0.3, 1, 3 and 10 mg/kg) were administered in the duodenum and blood pressure was monitored for 3 hours.

[4] = test system: conscious spontaneously hypertensive rats; experiment: Systolic blood pressure in conscious spontaneously hypertensive rats, oral; format: in vivo, rat
Experimental: Spontaneously hypertensive rats weighing between 250-300 g were used in this study. Rats were fasted overnight. Blood pressure was monitored from tail artery using semi-automatic noninvasive blood pressure monitoring apparatus. Compounds of the present invention (at dosages of 1, 3, 10, and 30 mg/kg) were administered orally. Blood pressure was monitored prior to and 1.5, 4, 6 and 24 hours after drug administration.

[5] = test system: conscious freely moving normotensive rats; experiment: Mean arterial blood pressure in conscious freely moving normotensive rats, oral; format: in vivo, rat
Experimental: Femoral artery of normotensive male wistar rats, maintained on an overnight light diet, were catheterized under pentobarbitone anaesthesia (35 mg/kg). Femoral artery catheter was exteriorized through the neck region for blood pressure recording. […] Blood pressure and heart rate were recorded with the help of Statham pressure transducer on a Grass polygraph and the results are shown in Table 4.

anaesthetized dogs = experiment: In vivo selectivity study, phenylephrine-induced blood pressure and intraurethral pressure in anaesthetized dogs; set-up: species or system dog; conditions: iv, against phenylephrine dose response
Experimental: Male mongrel dogs (12-20 Kg) were anaesthetized with pentobarbitone sodium (35 mg/kg, iv). Trachea was intubated for artificial respiration. Femoral artery and femoral vein were cannulated for recording blood pressure and for administration of drug solutions, respectively. Blood pressure was recorded on a polygraph through a pressure transducer. A paramedian incision was made lateral to the penis and the bladder was exposed. Urine was drained through a cannula put directly into the bladder and it was guided into the urethra gently and was placed at the prostatic urethra. Balloon was inflated with 2 cc air and its placement was confirmed by digital pressure. Intraurethral pressure was recorded on the polygraph through a pressure transducer. Graded dose response relationship of phenylephrine (1-16 μg/kg, iv) was obtained on prostatic pressure and blood pressure, prior to administration of the compounds of the present invention. Compounds 2, 9, and 13 (at dosages of 0.01, 0.03, 0.1, and 0.3 mg/kg) were administered intravenously 10 min before obtaining phenylephrine dose response curves. Results were analyzed and pseudo pKB values were calculated as described in Kenny et al (1996).

Potassium Channel = experiment: In vitro receptor selectivity, rat aorta; format: cell-based; conditions: NE: No effect
Experimental: as §2

α1-adrenergic = conditions: cited from earlier work

Chain of Muscarinic cholinergic receptor (P08483 whole entry): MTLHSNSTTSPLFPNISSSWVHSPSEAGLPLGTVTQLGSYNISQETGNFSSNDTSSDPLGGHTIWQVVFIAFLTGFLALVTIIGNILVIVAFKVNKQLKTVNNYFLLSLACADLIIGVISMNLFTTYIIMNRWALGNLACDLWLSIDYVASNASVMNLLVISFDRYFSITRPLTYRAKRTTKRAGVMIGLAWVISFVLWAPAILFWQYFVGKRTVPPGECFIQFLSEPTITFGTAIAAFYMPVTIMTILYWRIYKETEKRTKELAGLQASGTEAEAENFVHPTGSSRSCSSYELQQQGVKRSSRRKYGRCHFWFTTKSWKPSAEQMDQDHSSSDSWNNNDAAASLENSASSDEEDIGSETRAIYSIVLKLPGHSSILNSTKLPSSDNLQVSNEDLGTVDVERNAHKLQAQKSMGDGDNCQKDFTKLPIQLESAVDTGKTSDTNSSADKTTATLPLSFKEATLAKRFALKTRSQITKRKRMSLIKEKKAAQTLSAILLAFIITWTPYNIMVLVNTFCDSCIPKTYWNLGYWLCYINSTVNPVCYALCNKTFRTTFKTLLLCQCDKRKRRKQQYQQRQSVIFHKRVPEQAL

Structure (SMILES): O=C1CCC(=O)N1CCCN1CCN(c2ccc(F)cc2)CC1 (as salt: hydrochloride) [Compound 1, 1-[4-(4-Fluorophenyl)piperazin-1-yl]-3-(2,5-dioxopyrrolidin-1-yl)propane]
melting point: 246 to 247 °C

Structure (SMILES): COc1ccccc1N1CCN(CCCN2C(=O)CCC2=O)CC1 (as salt: hydrochloride) [Compound 2, 1-[4-(2-Methoxyphenyl)piperazin-1-yl]-3-(2,5-dioxopyrrolidin-1-yl)propane]
melting point: 199 to 202 °C

melting point: 206 to 208 °C
Structure (SMILES): O=C1CCCC(=O)N1CCCN1CCN(c2ccc(Cl)cc2)CC1 (as salt: hydrochloride) [Compound 15, 1-[4-(4-Chlorophenyl)piperazin-1-yl]-3-(2,6-dioxopiperidin-1-yl)propane]

melting point: 206 to 207 °C
Structure (SMILES): Cc1ccccc1N1CCN(CCCN2C(=O)CCCC2=O)CC1 (as salt: hydrochloride) [Compound 18, 1-[4-(2-Methylphenyl)piperazin-1-yl]-3-(2,6-dioxopiperidin-1-yl)propane]

Structure (SMILES): O=C1CCC(=O)N1CCCN1CCN(c2ccc(F)cc2)CC1 [Compound 1, 1-[4-(4-Fluorophenyl)piperazin-1-yl]-3-(2,5-dioxopyrrolidin-1-yl)propane]
Duration [1]: 15.0 min | In Vivo BP Fall in mmHg [1]: 5.0 mmHg

Structure (SMILES): COc1ccccc1N1CCN(CCCN2C(=O)CCC2=O)CC1 [Compound 2, 1-[4-(2-Methoxyphenyl)piperazin-1-yl]-3-(2,5-dioxopyrrolidin-1-yl)propane]
Duration [1]: 120.0 min | In Vivo BP Fall in mmHg [1]: 25 mmHg | pKB Muscarinic [2]: 5.0 | Duration of Action ([3]; 1 mg/kg intraduodenal): >2.5 h | Mean Arterial Pressure (% Change from basal) ([3]; 1 mg/kg intraduodenal): −19% | Duration of Action ([3]; 3 mg/kg intraduodenal): >2.5 h | Mean Arterial Pressure (% Change from basal) ([3]; 3 mg/kg intraduodenal): −43% | Duration of Action ([3]; 10 mg/kg intraduodenal): >2.5 h | Mean Arterial Pressure (% Change from basal) ([3]; 10 mg/kg intraduodenal): −42% | Systolic Pressure (% Change from basal) (at 6 hours) ([4]; 1 mg/kg oral): −7.0% | Systolic Pressure (% Change from basal) (at 6 hours) ([4]; 3 mg/kg oral): −12.0% | Systolic Pressure (% Change from basal) (at 6 hours) ([4]; 10 mg/kg oral): −13.0% | Systolic Pressure (% Change from basal) (at 6 hours) ([4]; 30 mg/kg oral): −17.0% | Mean Arterial Pressure (% Change from basal) ([5]; 3 mg/kg oral): −14% | Mean Arterial Pressure (% Change from basal) ([5]; 10 mg/kg oral): −10% | pseudo pKB Blood Pressure (anaesthetized dogs): 6.9 | pseudo pKB Intraurethral Pressure (anaesthetized dogs): 7.60

Structure (SMILES): COc1ccccc1N1CCN(CCCCN2C(=O)CCC2=O)CC1 [Compound 9, 1-[4-(2-Methoxyphenyl)piperazin-1-yl]-4-(2,5-dioxopyrrolidin-1-yl)butane]
Duration [1]: >180 min | In Vivo BP Fall in mmHg [1]: 46 mmHg | pKB Muscarinic [2]: 5.0 | Duration of Action ([3]; 1 mg/kg intraduodenal): >3.0 h | Mean Arterial Pressure (% Change from basal) ([3]; 1 mg/kg intraduodenal): −19% | Duration of Action ([3]; 3 mg/kg intraduodenal): >3.0 h | Mean Arterial Pressure (% Change from basal) ([3]; 3 mg/kg intraduodenal): −53% | Duration of Action ([3]; 10 mg/kg intraduodenal): >3.0 h | Mean Arterial Pressure (% Change from basal) ([3]; 10 mg/kg intraduodenal): −57% | Systolic Pressure (% Change from basal) (at 6 hours) ([4]; 1 mg/kg oral): −0.4% | Systolic Pressure (% Change from basal) (at 6 hours) ([4]; 3 mg/kg oral): −7.0% | Systolic Pressure (% Change from basal) (at 6 hours) ([4]; 10 mg/kg oral): −24.0% | Systolic Pressure (% Change from basal) (at 6 hours) ([4]; 30 mg/kg oral): −25.0% | Mean Arterial Pressure (% Change from basal) ([5]; 1 mg/kg oral): −4% | Mean Arterial Pressure (% Change from basal) ([5]; 10 mg/kg oral): −11% | pseudo pKB Blood Pressure (anaesthetized dogs): 7.4 | pseudo pKB Intraurethral Pressure (anaesthetized dogs): 7.9

Structure (SMILES): COc1ccccc1N1CCN(CCCN2C(=O)CCCC2=O)CC1 [Compound 13, 1-[4-(2-Methoxyphenyl)piperazin-1-yl]-3-(2,6-dioxopiperidin-1-yl)propane]
Duration [1]: >180 min | In Vivo BP Fall in mmHg [1]: 50.0 mmHg | pKB Muscarinic [2]: 5.5 | pKB Potassium Channel (Potassium Channel): 5 | Duration of Action ([3]; 1 mg/kg intraduodenal): <3.0 h | Mean Arterial Pressure (% Change from basal) ([3]; 1 mg/kg intraduodenal): −32% | Duration of Action ([3]; 3 mg/kg intraduodenal): >3.0 h | Mean Arterial Pressure (% Change from basal) ([3]; 3 mg/kg intraduodenal): −40% | Duration of Action ([3]; 10 mg/kg intraduodenal): >3.0 h | Mean Arterial Pressure (% Change from basal) ([3]; 10 mg/kg intraduodenal): −42% | Systolic Pressure (% Change from basal) (at 6 hours) ([4]; 1 mg/kg oral): −7.0% | Systolic Pressure (% Change from basal) (at 6 hours) ([4]; 3 mg/kg oral): −18.0% | Systolic Pressure (% Change from basal) (at 6 hours) ([4]; 10 mg/kg oral): −19.0% | Systolic Pressure (% Change from basal) (at 6 hours) ([4]; 30 mg/kg oral): −14.0% | Mean Arterial Pressure (% Change from basal) ([5]; 1 mg/kg oral): −5% | Mean Arterial Pressure (% Change from basal) ([5]; 3 mg/kg oral): −10% | pseudo pKB Blood Pressure (anaesthetized dogs): 7.1 | pseudo pKB Intraurethral Pressure (anaesthetized dogs): 8.1

Structure (SMILES): O=C1CCCC(=O)N1CCCN1CCN(c2ccc(F)cc2)CC1 [Compound 14, 1-[4-(4-Fluorophenyl)piperazin-1-yl]-3-(2,6-dioxopiperidin-1-yl)propane]
Duration [1]: 60.0 min | In Vivo BP Fall in mmHg [1]: 20.0 mmHg | melting point: 200 to 202 °C

Structure (SMILES): O=C1CCCC(=O)N1CCCN1CCN(c2ccccc2F)CC1 [Compound 17, 1-[4-(2-Fluorophenyl)piperazin-1-yl]-3-(2,6-dioxopiperidin-1-yl)propane]
Duration [1]: 120.0 min | In Vivo BP Fall in mmHg [1]: 50.0 mmHg

Structure (SMILES): Cc1ccccc1N1CCN(CCCN2C(=O)CCCC2=O)CC1 [Compound 18, 1-[4-(2-Methylphenyl)piperazin-1-yl]-3-(2,6-dioxopiperidin-1-yl)propane]
Duration [1]: >150 min | In Vivo BP Fall in mmHg [1]: 40.0 mmHg

Structure (SMILES): COc1cc2nc(N3CCN(C(=O)c4ccco4)CC3)nc(N)c2cc1OC [prazosin]
α1-adrenergic blocking activity (pKi) (α1-adrenergic): > 8
